PubChem BioAssay (NCI)
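A five-concentration, 48-hour dose response in 96-well plates underlies each endpoint, interpolated linearly between surrounding concentrations. At the GI50, growth is halved. The concentration for full growth arrest is given as TGI.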

Assays:
Assay in all cases: growth of human tumour cells (NCI), 48 h
SK-MEL-5 melanoma = system: SK-MEL-5 melanoma
SNB-75 CNS = system: SNB-75 CNS
SN12C renal = system: SN12C renal
SF-295 CNS = system: SF-295 CNS
OVCAR-8 ovarian = system: OVCAR-8 ovarian
MDA-MB-231 breast = system: MDA-MB-231 breast
NCI-H460 lung = system: NCI-H460 lung
NCI/ADR-RES ovarian = system: NCI/ADR-RES ovarian
HOP-62 NSCLC = system: HOP-62 NSCLC
HCT-15 colon = system: HCT-15 colon
MALME-3M melanoma = system: MALME-3M melanoma
PC-3 prostate = system: PC-3 prostate
U251 CNS = system: U251 CNS
HCC-2998 colon = system: HCC-2998 colon
IGROV1 ovarian = system: IGROV1 ovarian
MOLT-4 leukemia = system: MOLT-4 leukemia
SW-620 colon = system: SW-620 colon
HT29 colon = system: HT29 colon
OVCAR-3 ovarian = system: OVCAR-3 ovarian
RXF 393 renal = system: RXF 393 renal
COLO 205 colon = system: COLO 205 colon
BT-549 breast = system: BT-549 breast
SK-OV-3 ovarian = system: SK-OV-3 ovarian
NCI-H226 lung = system: NCI-H226 lung
UACC-62 melanoma = system: UACC-62 melanoma
SK-MEL-2 melanoma = system: SK-MEL-2 melanoma
SF-539 CNS = system: SF-539 CNS
KM12 colon = system: KM12 colon
SR leukemia = system: SR leukemia
UACC-257 melanoma = system: UACC-257 melanoma
CAKI-1 renal = system: CAKI-1 renal
RPMI-8226 leukemia = system: RPMI-8226 leukemia
MDA-MB-468 breast = system: MDA-MB-468 breast
SF-268 CNS = system: SF-268 CNS
UO-31 renal = system: UO-31 renal
M14 melanoma = system: M14 melanoma
K-562 leukemia = system: K-562 leukemia
A549 NSCLC = system: A549 NSCLC
TK-10 renal = system: TK-10 renal
LOX IMVI melanoma = system: LOX IMVI melanoma
OVCAR-4 ovarian = system: OVCAR-4 ovarian
A498 renal = system: A498 renal
HS 578T breast = system: HS 578T breast
HOP-92 NSCLC = system: HOP-92 NSCLC
786-0 renal = system: 786-0 renal
SK-MEL-28 melanoma = system: SK-MEL-28 melanoma
MCF7 breast = system: MCF7 breast
ACHN renal = system: ACHN renal
DU-145 prostate = system: DU-145 prostate
NCI-H23 lung = system: NCI-H23 lung
HL-60(TB) leukemia = system: HL-60(TB) leukemia
EKVX NSCLC = system: EKVX NSCLC
MDA-MB-435 = system: MDA-MB-435
SNB-19 CNS = system: SNB-19 CNS
CCRF-CEM leukemia = system: CCRF-CEM leukemia
HCT-116 colon = system: HCT-116 colon
T-47D breast = system: T-47D breast
OVCAR-5 ovarian = system: OVCAR-5 ovarian
NCI-H522 lung = system: NCI-H522 lung

Compound: Clc1ccc(-c2nc3ccc(-c4nnc(SCc5ccccc5)o4)cc3[nH]2)cc1
- GI50 (SK-MEL-5 melanoma): 4.87 µM
- TGI (SK-MEL-5 melanoma): 33.4 µM
- GI50 (SNB-75 CNS): 2.13 µM
- TGI (SNB-75 CNS): 22.9 µM
- GI50 (SN12C renal): 1.87 µM
- TGI (SN12C renal): 4.05 µM
- GI50 (SF-295 CNS): 5.41 µM
- TGI (SF-295 CNS): 52.3 µM
- GI50 (OVCAR-8 ovarian): 6.49 µM
- TGI (OVCAR-8 ovarian): 27.5 µM
- GI50 (MDA-MB-231 breast): 5.36 µM
- TGI (MDA-MB-231 breast): 36.1 µM
- GI50 (NCI-H460 lung): 5.37 µM
- TGI (NCI-H460 lung): > 100 µM
- GI50 (NCI/ADR-RES ovarian): 4.09 µM
- TGI (NCI/ADR-RES ovarian): 21.5 µM
- GI50 (HOP-62 NSCLC): 16.4 µM
- TGI (HOP-62 NSCLC): 86.6 µM
- GI50 (HCT-15 colon): 3.75 µM
- TGI (HCT-15 colon): 27.4 µM
- GI50 (MALME-3M melanoma): 16.1 µM
- TGI (MALME-3M melanoma): 83.2 µM
- GI50 (PC-3 prostate): 6.21 µM
- TGI (PC-3 prostate): > 100 µM
- GI50 (U251 CNS): 2.69 µM
- TGI (U251 CNS): 6.8 µM
- GI50 (HCC-2998 colon): 19.9 µM
- TGI (HCC-2998 colon): > 100 µM
- GI50 (IGROV1 ovarian): 7.37 µM
- TGI (IGROV1 ovarian): > 100 µM
- GI50 (MOLT-4 leukemia): 4.71 µM
- TGI (MOLT-4 leukemia): > 100 µM
- GI50 (SW-620 colon): 3.41 µM
- TGI (SW-620 colon): 43.2 µM
- GI50 (HT29 colon): 16.9 µM
- TGI (HT29 colon): > 100 µM
- GI50 (OVCAR-3 ovarian): 2.7 µM
- TGI (OVCAR-3 ovarian): 7.61 µM
- GI50 (RXF 393 renal): 3.58 µM
- TGI (RXF 393 renal): 48.6 µM
- GI50 (COLO 205 colon): 15.5 µM
- TGI (COLO 205 colon): > 100 µM
- GI50 (BT-549 breast): 24 µM
- TGI (BT-549 breast): > 100 µM
- GI50 (SK-OV-3 ovarian): 23 µM
- TGI (SK-OV-3 ovarian): > 100 µM
- GI50 (NCI-H226 lung): 7.54 µM
- TGI (NCI-H226 lung): 36 µM
- GI50 (UACC-62 melanoma): 13.8 µM
- TGI (UACC-62 melanoma): > 100 µM
- GI50 (SK-MEL-2 melanoma): 16.2 µM
- TGI (SK-MEL-2 melanoma): > 100 µM
- GI50 (SF-539 CNS): 2.98 µM
- TGI (SF-539 CNS): 10.2 µM
- GI50 (KM12 colon): 17.6 µM
- TGI (KM12 colon): > 100 µM
- GI50 (SR leukemia): 5.86 µM
- TGI (SR leukemia): > 100 µM
- GI50 (UACC-257 melanoma): 22.8 µM
- TGI (UACC-257 melanoma): > 100 µM
- GI50 (CAKI-1 renal): 16.1 µM
- TGI (CAKI-1 renal): 54.7 µM
- GI50 (RPMI-8226 leukemia): 8.07 µM
- TGI (RPMI-8226 leukemia): > 100 µM
- GI50 (MDA-MB-468 breast): 3.32 µM
- TGI (MDA-MB-468 breast): 15.3 µM
- GI50 (SF-268 CNS): 7.59 µM
- TGI (SF-268 CNS): > 100 µM
- GI50 (UO-31 renal): 9.18 µM
- TGI (UO-31 renal): > 100 µM
- GI50 (M14 melanoma): 25.5 µM
- TGI (M14 melanoma): > 100 µM
- GI50 (K-562 leukemia): 4.78 µM
- TGI (K-562 leukemia): > 100 µM
- GI50 (A549 NSCLC): 3.78 µM
- TGI (A549 NSCLC): > 100 µM
- GI50 (TK-10 renal): > 100 µM
- TGI (TK-10 renal): > 100 µM
- GI50 (LOX IMVI melanoma): 4.95 µM
- TGI (LOX IMVI melanoma): 40.7 µM
- GI50 (OVCAR-4 ovarian): 3.87 µM
- TGI (OVCAR-4 ovarian): 21.9 µM
- GI50 (A498 renal): 18.2 µM
- TGI (A498 renal): 42.5 µM
- GI50 (HS 578T breast): 12.2 µM
- TGI (HS 578T breast): > 100 µM
- GI50 (HOP-92 NSCLC): 11.5 µM
- TGI (HOP-92 NSCLC): 48.3 µM
- GI50 (786-0 renal): 4.03 µM
- TGI (786-0 renal): > 100 µM
- GI50 (SK-MEL-28 melanoma): 36.9 µM
- TGI (SK-MEL-28 melanoma): > 100 µM
- GI50 (MCF7 breast): 3.08 µM
- TGI (MCF7 breast): > 100 µM
- GI50 (ACHN renal): 14.5 µM
- TGI (ACHN renal): > 100 µM
- GI50 (DU-145 prostate): 57 µM
- TGI (DU-145 prostate): > 100 µM
- GI50 (NCI-H23 lung): 6.21 µM
- TGI (NCI-H23 lung): 74.2 µM
- GI50 (HL-60(TB) leukemia): 26.2 µM
- TGI (HL-60(TB) leukemia): > 100 µM
- GI50 (EKVX NSCLC): 4.18 µM
- TGI (EKVX NSCLC): 39 µM
- GI50 (MDA-MB-435): 8.65 µM
- TGI (MDA-MB-435): > 100 µM
- GI50 (SNB-19 CNS): 5.85 µM
- TGI (SNB-19 CNS): > 100 µM
- GI50 (CCRF-CEM leukemia): 4.91 µM
- TGI (CCRF-CEM leukemia): > 100 µM
- GI50 (HCT-116 colon): 3.25 µM
- TGI (HCT-116 colon): > 100 µM
- GI50 (T-47D breast): 3.05 µM
- TGI (T-47D breast): 41.3 µM
- GI50 (OVCAR-5 ovarian): 5.87 µM
- TGI (OVCAR-5 ovarian): 97.1 µM
- GI50 (NCI-H522 lung): 2.83 µM
- TGI (NCI-H522 lung): 10.3 µM
